Experimental data published in patent US7517874B2 (priority 2007, dated 2009).
Read-outs that look alike come from different tables or passages of the source.

Assays:
[1] = molecular target: human CB1 receptor (hCB1) (Homo sapiens, UniProt P21554); assay: cell-based; format: cell-based
How it was run: (§1)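 First, cells in IBMX-containing HEPES-buffered HBSS are raised to elevated cAMP with 2-8 μM NKH-477 for 30 min. Data are normalised to the forskolin and forskolin + 1 μM CP55,940 controls.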

[2] = molecular target: T1, rat CB2 receptor (rCB2) (Rattus norvegicus, UniProt Q9QZN9); assay: cell-based; format: cell-based; settings: for +/− RCB2: agonist or inverse agonist at rCB2
T1 sequence (Q9QZN9 1-360): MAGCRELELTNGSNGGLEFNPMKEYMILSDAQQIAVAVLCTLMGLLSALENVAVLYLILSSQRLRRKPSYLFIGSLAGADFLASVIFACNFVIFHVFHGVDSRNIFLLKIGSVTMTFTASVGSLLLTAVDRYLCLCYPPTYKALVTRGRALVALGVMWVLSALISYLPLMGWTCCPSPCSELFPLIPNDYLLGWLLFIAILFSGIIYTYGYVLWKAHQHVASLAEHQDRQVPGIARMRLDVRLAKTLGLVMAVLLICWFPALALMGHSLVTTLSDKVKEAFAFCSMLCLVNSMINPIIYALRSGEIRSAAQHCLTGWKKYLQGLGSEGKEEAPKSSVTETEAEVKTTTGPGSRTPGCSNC
How it was run: as §1

Chain of human CB1 receptor (hCB1) (P21554 whole entry): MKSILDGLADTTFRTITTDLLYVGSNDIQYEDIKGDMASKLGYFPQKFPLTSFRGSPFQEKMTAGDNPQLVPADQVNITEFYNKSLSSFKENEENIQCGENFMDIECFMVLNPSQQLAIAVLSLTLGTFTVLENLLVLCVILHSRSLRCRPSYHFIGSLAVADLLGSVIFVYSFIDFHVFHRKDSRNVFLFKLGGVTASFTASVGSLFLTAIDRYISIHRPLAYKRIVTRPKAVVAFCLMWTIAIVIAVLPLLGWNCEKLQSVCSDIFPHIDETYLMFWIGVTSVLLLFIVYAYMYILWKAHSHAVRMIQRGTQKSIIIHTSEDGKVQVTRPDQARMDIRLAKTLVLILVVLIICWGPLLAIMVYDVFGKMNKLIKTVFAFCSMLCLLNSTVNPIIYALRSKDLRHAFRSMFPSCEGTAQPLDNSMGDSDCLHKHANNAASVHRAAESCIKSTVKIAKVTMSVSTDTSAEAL

| SMILES | EC50 ([1]; groups >100 nM-10 μM and >10 μM, cAMP, CHO-K1 hCB1, read-out: EC50 HCB1) [nM] | EC50 ([2]; groups >100 nM-10 μM and >10 μM, cAMP, CHO-K1 rCB2, read-out: EC50 RCB2) [nM] | EC50 [1] [nM] | +/− RCB2 [2] |
| --- | --- | --- | --- | --- |
| CN1CCn2c(-c3ccccc3)nc(C(=O)NCC(C)(C)CO)c2C1 [Compound 82, N-(3-hydroxy-2,2-dimethylpropyl)-7-methyl-3-phenyl-5,6,7,8-tetrahydroimidazo[1,5-a]pyrazine-1-carboxamide] | > 10000 | > 10000 |  |  |
| CNC(=O)[C@@H](NC(=O)c1nc(-c2ccccc2)n2c1CN(C(C)C)CC2)C(C)(C)C [Compound 85, (S)-N-(3,3-dimethyl-1-(methylamino)-1-oxobutan-2-yl)-7-isopropyl-3-phenyl-5,6,7,8-tetrahydroimidazo[1,5-a]pyrazine-1-carboxamide] |  |  | > 10000 | − |
| COC(=O)[C@@H](NC(=O)c1nc(-c2ccccc2)n2c1CN(C)CC2)C(C)(C)C [Compound 86, (S)-methyl 3,3-dimethyl-2-(7-methyl-3-phenyl-5,6,7,8-tetrahydro-imidazo[1,5-a]pyrazine-1-carboxamido)butanoate] |  |  | > 10000 | + |
| Cc1noc([C@@H](NC(=O)c2nc(-c3ccccc3)n3c2CN(C)CC3)C(C)(C)C)n1 [Compound 87, (S)-N-(2,2-dimethyl-1-(3-methyl-1,2,4-oxadiazol-5-yl)propyl)-7-methyl-3-phenyl-5,6,7,8-tetrahydroimidazo[1,5-a]pyrazine-1-carboxamide] |  |  | > 10000 | − |
| Cc1noc([C@@H](NC(=O)c2nc(-c3ccccc3)n3c2CN(CC2CC2)CC3)C(C)(C)C)n1 [Compound 88, (S)-7-(cyclopropylmethyl)-N-(2,2-dimethyl-1-(3-methyl-1,2,4-oxadiazol-5-yl)propyl)-3-phenyl-5,6,7,8-tetrahydroimidazo[1,5-a]pyrazine-1-carboxamide] |  |  | > 10000 | − |
| Cc1noc([C@@H](NC(=O)c2nc(-c3ccccc3)n3c2CN(C(C)C)CC3)C(C)(C)C)n1 [Compound 89, (S)-N-(2,2-dimethyl-1-(3-methyl-1,2,4-oxadiazol-5-yl)propyl)-7-isopropyl-3-phenyl-5,6,7,8-tetrahydroimidazo[1,5-a]pyrazine-1-carboxamide] |  |  | > 10000 | − |
| Cc1noc([C@@H](NC(=O)c2nc(-c3ccccc3)n3c2CN(CC(C)C)CC3)C(C)(C)C)n1 [Compound 90, (S)-N-(2,2-dimethyl-1-(3-methyl-1,2,4-oxadiazol-5-yl)propyl)-7-isobutyl-3-phenyl-5,6,7,8-tetrahydroimidazo[1,5-a]pyrazine-1-carboxamide] |  |  | > 10000 | − |
| CNC(=O)[C@@H](NC(=O)c1nc(-c2ccccc2)n2c1CN(S(C)(=O)=O)CC2)C(C)(C)C [Compound 92, (S)-N-(3,3-dimethyl-1-(methylamino)-1-oxobutan-2-yl)-7-(methylsulfonyl)-3-phenyl-5,6,7,8-tetrahydroimidazo[1,5-a]pyrazine-1-carboxamide] |  |  | > 10000 | − |
| CNC(=O)[C@@H](NC(=O)c1nc(-c2ccccc2)n2c1CN(S(=O)(=O)c1ccc(F)cc1)CC2)C(C)(C)C [Compound 93, (S)-N-(3,3-dimethyl-1-(methylamino)-1-oxobutan-2-yl)-7-(4-fluorophenylsulfonyl)-3-phenyl-5,6,7,8-tetrahydroimidazo[1,5-a]pyrazine-1-carboxamide] |  |  | > 10000 | − |
| CNC(=O)[C@@H](NC(=O)c1nc(-c2ccccc2)n2c1CN(S(=O)(=O)C(C)C)CC2)C(C)(C)C [Compound 94, (S)-N-(3,3-dimethyl-1-(methylamino)-1-oxobutan-2-yl)-7-(isopropylsulfonyl)-3-phenyl-5,6,7,8-tetrahydroimidazo[1,5-a]pyrazine-1-carboxamide] |  |  | > 10000 | − |
| CNC(=O)[C@@H](NC(=O)c1nc(-c2ccccc2)n2c1CN(S(=O)(=O)CC(C)C)CC2)C(C)(C)C [Compound 95, (S)-N-(3,3-dimethyl-1-(methylamino)-1-oxobutan-2-yl)-7-(isobutylsulfonyl)-3-phenyl-5,6,7,8-tetrahydroimidazo[1,5-a]pyrazine-1-carboxamide] |  |  | > 10000 | − |
| CNC(=O)[C@@H](NC(=O)c1nc(-c2ccccc2)n2c1CN(S(=O)(=O)c1ccccc1)CC2)C(C)(C)C [Compound 96, (S)-N-(3,3-dimethyl-1-(methylamino)-1-oxobutan-2-yl)-3-phenyl-7-(phenylsulfonyl)-5,6,7,8-tetrahydroimidazo[1,5-a]pyrazine-1-carboxamide] |  |  | > 10000 | − |
| CNC(=O)[C@@H](NC(=O)c1nc(-c2ccccc2)n2c1CN(S(=O)(=O)c1ccccc1[N+](=O)[O-])CC2)C(C)(C)C [Compound 97, (S)-N-(3,3-dimethyl-1-(methylamino)-1-oxobutan-2-yl)-7-(2-nitrophenylsulfonyl)-3-phenyl-5,6,7,8-tetrahydroimidazo[1,5-a]pyrazine-1-carboxamide] |  |  | > 10000 | − |
| CNC(=O)[C@@H](NC(=O)c1nc(-c2ccccc2)n2c1CN(S(=O)(=O)c1ccccc1F)CC2)C(C)(C)C [Compound 98, (S)-N-(3,3-dimethyl-1-(methylamino)-1-oxobutan-2-yl)-7-(2-fluorophenylsulfonyl)-3-phenyl-5,6,7,8-tetrahydroimidazo[1,5-a]pyrazine-1-carboxamide] |  |  | > 10000 | − |
| CNC(=O)[C@@H](NC(=O)c1nc(-c2ccccc2)n2c1CN(S(=O)(=O)c1cccc(F)c1)CC2)C(C)(C)C [Compound 99, (S)-N-(3,3-dimethyl-1-(methylamino)-1-oxobutan-2-yl)-7-(3-fluorophenylsulfonyl)-3-phenyl-5,6,7,8-tetrahydroimidazo[1,5-a]pyrazine-1-carboxamide] |  |  | > 10000 | − |
| CNC(=O)[C@@H](NC(=O)c1nc(-c2ccccc2)n2c1CN(S(=O)(=O)C1CC1)CC2)C(C)(C)C [Compound 100, (S)-7-(cyclopropylsulfonyl)-N-(3,3-dimethyl-1-(methylamino)-1-oxobutan-2-yl)-3-phenyl-5,6,7,8-tetrahydroimidazo[1,5-a]pyrazine-1-carboxamide] |  |  | > 10000 | − |
| CC(C)(C)[C@@H](CO)NC(=O)c1nc(-c2ccccc2)n2c1CN(S(=O)(=O)c1ccc(F)cc1)CC2 [Compound 101, (S)-7-(4-fluorophenylsulfonyl)-N-(1-hydroxy-3,3-dimethylbutan-2-yl)-3-phenyl-5,6,7,8-tetrahydroimidazo[1,5-a]pyrazine-1-carboxamide] |  |  | > 10000 | − |
| CC(C)(C)[C@@H](CO)NC(=O)c1nc(-c2ccccc2)n2c1CN(S(=O)(=O)c1ccccc1)CC2 [Compound 102, (S)-N-(1-hydroxy-3,3-dimethylbutan-2-yl)-3-phenyl-7-(phenylsulfonyl)-5,6,7,8-tetrahydroimidazo[1,5-a]pyrazine-1-carboxamide] |  |  | > 10000 | − |
| CC(C)(C)CNC(=O)c1nc(-c2ccccc2)n2c1CN(S(=O)(=O)c1ccc(F)cc1)CC2 [Compound 103, 7-(4-fluorophenylsulfonyl)-N-neopentyl-3-phenyl-5,6,7,8-tetrahydroimidazo[1,5-a]pyrazine-1-carboxamide] |  |  | > 10000 | − |
| CC(C)(C)CNC(=O)c1nc(-c2ccccc2)n2c1CN(S(=O)(=O)c1ccccc1)CC2 [Compound 104, N-neopentyl-3-phenyl-7-(phenylsulfonyl)-5,6,7,8-tetrahydroimidazo[1,5-a]pyrazine-1-carboxamide] |  |  | > 10000 | − |
